Results reported in ChEMBL document CHEMBL4342527, “Discovery of Novel Fungal Lanosterol 14α-Demethylase (CYP51)/Histone Deacetylase Dual Inhibitors to Treat Azole-Resistant Candidiasis” (J Med Chem, 2020).
In brackets after ≈: the same amount, converted by molar mass. Activity calls are given as the source filed them. The rule behind the calls is not given here.

Legend:
[1] = molecular target: T1, Lanosterol 14-alpha demethylase (Candida albicans (strain SC5314 / ATCC MYA-2876) (Yeast), UniProt P10613); experiment: Inhibition of CYP51 in azole-resistant Candida albicans 0304103 assessed as obtusifoliol level at 0.5 ug/ml after 24 hrs by GC-MS analysis relative to control; design: scale not given: the % may be the effect or the level left
T1 sequence (P10613 whole entry): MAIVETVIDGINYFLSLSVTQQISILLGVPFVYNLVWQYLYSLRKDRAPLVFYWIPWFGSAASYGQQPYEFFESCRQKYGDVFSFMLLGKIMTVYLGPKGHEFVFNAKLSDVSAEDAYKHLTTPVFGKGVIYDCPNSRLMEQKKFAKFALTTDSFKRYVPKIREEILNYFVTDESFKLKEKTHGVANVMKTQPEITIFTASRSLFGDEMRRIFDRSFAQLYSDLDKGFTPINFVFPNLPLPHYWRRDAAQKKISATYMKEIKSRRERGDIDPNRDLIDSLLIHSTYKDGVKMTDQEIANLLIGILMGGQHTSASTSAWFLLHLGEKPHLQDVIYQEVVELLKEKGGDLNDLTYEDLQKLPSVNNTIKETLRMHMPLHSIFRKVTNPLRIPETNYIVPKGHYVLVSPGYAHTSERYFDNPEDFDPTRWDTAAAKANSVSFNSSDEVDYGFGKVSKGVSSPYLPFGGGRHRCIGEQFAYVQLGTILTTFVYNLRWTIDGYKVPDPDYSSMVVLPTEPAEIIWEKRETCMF

[2] = test system: Candida albicans; experiment: Antifungal activity against azole-resistant Candida albicans 0304103 infected in ICR mouse assessed as inhibition of fungal infection in kidney at 20 mg/kg, po qd for 5 days and measured on day 6 by periodic acid schiff staining-based histological analysis; type: functional, organism-based
[3] = test system: Cryptococcus neoformans; experiment: Antifungal activity against azole-sensitive Cryptococcus neoformans H99 after 72 hrs by spectrophotometry-based serial microdilution method; type: functional, var grubii H99; conditions: Cryptococcus neoformans, var grubii H99 , 72 h; read-out: MIC80
[4] = test system: Candida albicans; experiment: Antifungal activity against azole-sensitive Candida albicans SC5314 after 48 hrs by spectrophotometry-based serial microdilution method; type: functional; conditions: Candida albicans, SC5314, 48 h; read-out: MIC80
[5] = Selectivity index, ratio of IC50 for HUVEC to MIC80 for azole-resistant Candida albicans 7781; type: toxicity; conditions: human
[6] = test system: Candida albicans; experiment: Antifungal activity against azole-resistant Candida albicans 0304103 infected in ICR mouse assessed as mean survival time at 20 mg/kg, ip qd for 5 days (reference value: 10 days); type: functional
[7] = test system: Candida albicans; experiment: Antifungal activity against azole-resistant Candida albicans 0304103 infected in ICR mouse assessed as reduction in fungal burden in kidney at 20 mg/kg, po qd for 5 days measured 24 hrs post-last dose; type: functional, organism-based
[8] = molecular target: T1, Lanosterol 14-alpha demethylase; experiment: Inhibition of CYP51 in azole-resistant Candida albicans 0304103 assessed as reduction in ERG11 gene expression at 32 ug/ml after 16 hrs by SYBR Green-1 dye based RT-PCR analysis; design: species or system 304103
[9] = test system: Candida albicans; experiment: Antifungal activity against azole-resistant Candida albicans 0304103 infected in ICR mouse assessed as reduction in fungal burden in kidney by measuring colony forming units at 20 mg/kg, ip qd for 5 days measured 24 hrs post-last dose (reference value: 6.89 log10CFU/g); type: functional
[10] = test system: Candida albicans; experiment: Antifungal activity against Candida albicans 0304103 assessed as inhibition of yeast to hypha morphological transition at 1 ug/ml after 4 hrs by differential interference contrast microscopic analysis relative to control; type: functional; conditions: Candida albicans, 0304103, 4 h
[11] = test system: Candida albicans; experiment: Fungistatic activity agaisnt Candida albicans 0304103 at 16 ug/ml preincubated for up to 24 hrs followed by replating on SDA plate and measured after 48 hrs by time kill assay; type: functional, organism-based
[12] = Selectivity index, ratio of IC50 for human A549 cells to MIC80 for azole-resistant Candida albicans 7781; type: toxicity
[13] = test system: Candida albicans; experiment: Inhibition of HDAC in azole-resistant Candida albicans 0304103 assessed as reduction in CDR1 gene expression at 32 ug/ml after 16 hrs by SYBR Green-1 dye based RT-PCR analysis; conditions: 304103
[14] = molecular target: Histone deacetylase 1 (Homo sapiens, UniProt Q13547); experiment: Inhibition of HDAC1 (unknown origin) after 30 mins by fluorescence based assay
Sequence of Histone deacetylase 1 (Q13547 whole entry): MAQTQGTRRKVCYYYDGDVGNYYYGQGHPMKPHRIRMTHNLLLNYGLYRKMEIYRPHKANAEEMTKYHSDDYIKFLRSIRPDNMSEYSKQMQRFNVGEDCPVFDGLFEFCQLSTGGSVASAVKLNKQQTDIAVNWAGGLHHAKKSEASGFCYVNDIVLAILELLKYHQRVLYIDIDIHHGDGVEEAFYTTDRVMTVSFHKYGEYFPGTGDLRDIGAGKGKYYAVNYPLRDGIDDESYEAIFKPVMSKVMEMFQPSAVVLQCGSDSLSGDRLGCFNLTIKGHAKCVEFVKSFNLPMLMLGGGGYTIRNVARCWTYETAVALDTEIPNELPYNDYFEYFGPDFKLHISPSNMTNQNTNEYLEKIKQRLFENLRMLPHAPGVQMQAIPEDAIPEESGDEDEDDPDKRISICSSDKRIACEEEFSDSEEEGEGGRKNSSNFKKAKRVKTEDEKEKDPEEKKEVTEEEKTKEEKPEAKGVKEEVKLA

[15] = test system: Candida albicans; experiment: Inhibition of HDAC in azole-resistant Candida albicans 0304103 assessed as reduction in MDR1 gene expression at 32 ug/ml after 16 hrs by SYBR Green-1 dye based RT-PCR analysis; conditions: 304103
[16] = test system: Candida albicans; experiment: Antifungal activity against azole-resistant Candida albicans 0304103 infected in ICR mouse assessed as inhibition of fungal infection in kidney at 20 mg/kg, ip qd for 5 days and measured on day 6 by periodic acid schiff staining-based histological analysis; type: functional, organism-based
[17] = test system: Candida albicans; experiment: Inhibition of yeast to hypha transition in azole resistant Candida albicans 0304103 assessed as down regulation of EFG1 gene expression at 32 ug /ml after 16 hrs by SYBR Green I dye based RT-PCR analysis; type: functional, organism-based
[18] = test system: Candida tropicalis; experiment: Antifungal activity against azole-resistant Candida tropicalis 5008 after 48 hrs by spectrophotometry-based serial microdilution method; type: functional; conditions: Candida tropicalis, 5008, 48 h
[19] = test system: Candida albicans; experiment: Antifungal activity against Candida albicans 0304103 assessed as inhibition of yeast to hypha morphological transition at 8 ug/ml after 4 hrs by differential interference contrast microscopic analysis relative to control; type: functional; conditions: Candida albicans, 0304103, 4 h

For `CN(Cc1ccc(OCCCOc2ccc(CC(=O)NO)cc2)cc1)CC(O)(Cn1cncn1)c1ccc(F)cc1F` (racemic), the Activity [1] was 7.59%, the inhibition [2] was “Active” and the MIC80 [3] was 0.5 µg/mL (≈ 0.86 µM). For the same compound, the MIC80 [4] was 0.125 µg/mL (≈ 0.215 µM), the selectivity ratio [5] was 2 to 16 and the MST [6] was 16.5 days. For the same compound, the Activity [7] was “Active”, the “inhibition (INH)” value [8] was “Active” and the Activity [9] was 6.16 log10CFU/g. For the same compound, the inhibition at 1 µg/mL [10] was 100%, the Activity [11] was “Active” and the selectivity ratio [12] was 2 to 16. The inhibition [13] was “Active”, the IC50 [14] was 690 nM and the inhibition [15] was “Active”. For the same compound, the inhibition [16] was “Active”, the inhibition [17] was “Active” and the MIC80 [18] was 0.25 µg/mL (≈ 0.43 µM).
For `CN(Cc1ccc(-n2cnn(CCCCc3ccc(C(=O)NO)cc3)c2=O)cc1)CC(O)(Cn1cncn1)c1ccc(F)cc1F` (racemic), the inhibition [2] was “Active”, the MIC80 [3] was 2 µg/mL (≈ 3.16 µM) and the MIC80 [4] was 4 µg/mL (≈ 6.32 µM). It also gave a selectivity ratio [5] of 2 to 16, an inhibition at 8 µg/mL [19] of 100% and an MST [6] of 20 days. For the same compound, the Activity [7] was “Active”, the “inhibition (INH)” value [8] was “Active” and the Activity [9] was 4.49 log10CFU/g. For the same compound, the selectivity ratio [12] was 2 to 16, the inhibition [13] was “Active” and the IC50 [14] was 280 nM. For the same compound, the inhibition [16] was “Active”, the inhibition [17] was “Active” and the MIC80 [18] was 8 µg/mL (≈ 12.6 µM).
